Assay results as given in patent US20120053184A1, “SALTS OF 3-(1H-IND0L-3-YL)-4-[2-(4-METHYL-PIPERAZIN-I-YL)-QUINAZOLIN-4-YL]-PYRROLE-2, 5-DI ONE” (priority 2007, published 2012).

Columns and labels:
[1] = stability in the solid state (heat, heat/humidity, light); type: physicochemical; conditions: after one week at 80° C. in a close container, or at 80° C./75% r.h. in open container, or upon exposure to light (1200 kLux, 300-800 nm)
From the text: Criteria for selecting the salts of the invention include i) dissolution in water, with measurement of degradation products, and decoloration, ii) stability against heat in solid state, iii) exposure to light (e.g. Xenon light), iv) corosivity to steel.

[2] = solubility in aqueous media; type: physicochemical
From the text: Therefore it is not straightforward or easy to formulate it into pharmaceutical compositions, e.g. for oral administration.

SMILES	stability in the solid state [1]	solubility in aqueous media [2]
CN1CCN(c2nc(C3=C(c4c[nH]c5ccccc45)C(=O)NC3=O)c3ccccc3n2)CC1.O=C(O)/C=C\C(=O)O [maleate, Maleate Salt of 3-(1.H.-indol-3-yl)-4-[2-(4-methyl-piperazin-1-yl)-quinazolin-4-yl]-pyrrole-2,5-dione]	very good stability	–
CN1CCN(c2nc(C3=C(c4c[nH]c5ccccc45)C(=O)NC3=O)c3ccccc3n2)CC1.CS(=O)(=O)O [mesylate salt, Mesylate Salt of 3-(1.H.-indol-3-yl)-4-[2-(4-methyl-piperazin-1-yl)-quinazolin-4-yl]-pyrrole-2,5-dione]	very good stability	–
CN1CCN(c2nc(C3=C(c4c[nH]c5ccccc45)C(=O)NC3=O)c3ccccc3n2)CC1 [free base, 3-(1.H.-indol-3-yl)-4-[2-(4-methyl-piperazin-1-yl)-quinazolin-4-yl]-pyrrole-2,5-dione]	–	relatively low solubility
